Test [1] concerns the target T1, Dual specificity mitogen-activated protein kinase kinase 6 (Homo sapiens) (UniProt P52564).
T1 sequence (whole entry): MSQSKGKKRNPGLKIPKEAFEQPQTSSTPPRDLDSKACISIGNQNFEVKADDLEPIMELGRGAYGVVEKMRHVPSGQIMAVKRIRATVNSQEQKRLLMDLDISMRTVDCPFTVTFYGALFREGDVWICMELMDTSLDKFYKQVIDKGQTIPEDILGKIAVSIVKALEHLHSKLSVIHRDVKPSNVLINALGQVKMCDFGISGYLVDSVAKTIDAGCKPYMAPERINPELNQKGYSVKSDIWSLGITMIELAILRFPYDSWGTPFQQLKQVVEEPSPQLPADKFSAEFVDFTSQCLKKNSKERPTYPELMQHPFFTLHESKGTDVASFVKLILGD
Briefly: MAP2K6 SGC Tm panel (DSF). To be noted: for ΔTm: Compound concentration 10.0 uM.

Test [2] addresses Calcium/calmodulin-dependent protein kinase type 1D (Homo sapiens) (UniProt Q8IU85). Nature of the test: CAMK1D SGC Tm panel (DSF). To be noted: for ΔTm: Compound concentration 10.0 uM.
Test [3] concerns the target Serine/threonine-protein kinase pim-3 (Homo sapiens) (UniProt Q86V86). Briefly: PIM3 SGC Tm panel (DSF). To be noted: for ΔTm: Compound concentration 10.0 uM.
The target in test [4] is Kappa-type opioid receptor (Homo sapiens) (UniProt P41145). To be noted: Compound concentration 10.0 uM.
Sequence of Kappa-type opioid receptor (Homo sapiens) (P41145 whole entry, canonical isoform): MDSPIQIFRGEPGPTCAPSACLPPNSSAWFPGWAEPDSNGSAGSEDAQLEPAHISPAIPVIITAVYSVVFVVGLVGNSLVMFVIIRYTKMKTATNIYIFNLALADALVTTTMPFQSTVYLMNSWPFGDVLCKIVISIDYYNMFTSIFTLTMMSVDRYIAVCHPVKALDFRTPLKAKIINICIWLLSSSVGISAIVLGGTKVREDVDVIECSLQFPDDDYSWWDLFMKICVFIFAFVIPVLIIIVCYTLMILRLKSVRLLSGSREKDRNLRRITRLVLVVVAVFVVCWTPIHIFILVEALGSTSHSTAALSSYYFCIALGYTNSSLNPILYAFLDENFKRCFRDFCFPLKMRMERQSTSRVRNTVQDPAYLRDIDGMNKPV
The target in test [5] is T2, Phosphorylase b kinase gamma catalytic chain, liver/testis isoform (Homo sapiens) (UniProt P15735).
T2 sequence (whole entry): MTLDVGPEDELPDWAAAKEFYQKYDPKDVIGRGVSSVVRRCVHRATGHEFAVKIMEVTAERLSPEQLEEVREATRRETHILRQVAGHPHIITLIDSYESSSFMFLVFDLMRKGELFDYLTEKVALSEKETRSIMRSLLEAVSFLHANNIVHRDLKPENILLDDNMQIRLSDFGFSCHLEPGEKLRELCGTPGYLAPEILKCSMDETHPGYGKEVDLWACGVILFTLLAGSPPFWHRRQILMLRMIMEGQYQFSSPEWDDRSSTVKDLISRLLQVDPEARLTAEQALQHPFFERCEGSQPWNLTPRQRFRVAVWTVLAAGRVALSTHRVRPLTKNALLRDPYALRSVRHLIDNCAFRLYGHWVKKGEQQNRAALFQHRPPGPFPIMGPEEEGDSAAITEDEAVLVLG
Nature of the test: PHKG2 SGC Tm panel (DSF). To be noted: for ΔTm: Compound concentration 10.0 uM.

The target in test [6] is Transcription initiation factor TFIID subunit 1 (Homo sapiens) (UniProt P21675). Nature of the test: TAF1 SGC Tm panel (DSF). To be noted: for ΔTm: Compound concentration 10.0 uM.
For test [7], the target named is Calcium/calmodulin-dependent protein kinase type II subunit beta (Homo sapiens) (UniProt Q13554). Nature of the test: CAMK2B SGC Tm panel (DSF). To be noted: for ΔTm: Compound concentration 10.0 uM.
Sequence of Calcium/calmodulin-dependent protein kinase type II subunit beta (Homo sapiens) (Q13554 whole entry): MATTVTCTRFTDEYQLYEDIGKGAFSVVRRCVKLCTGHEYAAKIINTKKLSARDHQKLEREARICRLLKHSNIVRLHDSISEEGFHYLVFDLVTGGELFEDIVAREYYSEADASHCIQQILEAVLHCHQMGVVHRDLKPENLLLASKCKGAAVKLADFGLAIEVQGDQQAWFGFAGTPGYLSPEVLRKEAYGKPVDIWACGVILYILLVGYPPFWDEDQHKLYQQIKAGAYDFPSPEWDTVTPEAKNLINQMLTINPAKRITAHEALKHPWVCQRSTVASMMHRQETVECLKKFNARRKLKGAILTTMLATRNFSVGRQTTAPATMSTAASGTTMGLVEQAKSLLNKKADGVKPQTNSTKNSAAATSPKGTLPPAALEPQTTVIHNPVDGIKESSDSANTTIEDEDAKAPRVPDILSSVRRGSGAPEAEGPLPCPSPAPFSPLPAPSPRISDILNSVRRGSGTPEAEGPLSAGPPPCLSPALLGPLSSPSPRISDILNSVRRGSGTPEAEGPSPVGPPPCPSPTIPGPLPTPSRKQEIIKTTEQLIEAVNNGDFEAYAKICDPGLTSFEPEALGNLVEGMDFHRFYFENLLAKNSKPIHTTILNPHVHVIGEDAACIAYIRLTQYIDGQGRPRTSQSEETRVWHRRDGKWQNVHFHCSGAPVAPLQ
For test [8], the target named is Serine/threonine-protein kinase PAK 1 (Homo sapiens) (UniProt Q13153). Nature of the test: PAK1 SGC Tm panel (DSF). To be noted: for ΔTm: Compound concentration 10.0 uM.
Sequence of Serine/threonine-protein kinase PAK 1 (Homo sapiens) (Q13153 whole entry): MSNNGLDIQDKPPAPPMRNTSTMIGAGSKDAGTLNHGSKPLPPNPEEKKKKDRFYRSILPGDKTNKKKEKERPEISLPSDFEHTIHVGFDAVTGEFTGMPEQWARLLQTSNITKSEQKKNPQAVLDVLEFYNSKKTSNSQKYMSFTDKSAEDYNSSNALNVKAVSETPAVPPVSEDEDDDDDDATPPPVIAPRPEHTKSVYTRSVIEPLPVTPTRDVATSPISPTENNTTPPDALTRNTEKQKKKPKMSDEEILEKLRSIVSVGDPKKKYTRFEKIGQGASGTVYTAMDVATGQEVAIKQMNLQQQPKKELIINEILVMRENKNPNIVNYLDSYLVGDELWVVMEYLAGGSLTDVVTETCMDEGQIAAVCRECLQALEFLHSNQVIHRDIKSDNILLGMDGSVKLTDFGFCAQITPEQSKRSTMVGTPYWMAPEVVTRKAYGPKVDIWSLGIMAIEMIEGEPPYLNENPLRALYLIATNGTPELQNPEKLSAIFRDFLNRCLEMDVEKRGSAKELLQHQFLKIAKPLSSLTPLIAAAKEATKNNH
For test [9], the target named is T3, Tyrosine-protein kinase Mer (Homo sapiens) (UniProt Q12866).
T3 sequence (whole entry): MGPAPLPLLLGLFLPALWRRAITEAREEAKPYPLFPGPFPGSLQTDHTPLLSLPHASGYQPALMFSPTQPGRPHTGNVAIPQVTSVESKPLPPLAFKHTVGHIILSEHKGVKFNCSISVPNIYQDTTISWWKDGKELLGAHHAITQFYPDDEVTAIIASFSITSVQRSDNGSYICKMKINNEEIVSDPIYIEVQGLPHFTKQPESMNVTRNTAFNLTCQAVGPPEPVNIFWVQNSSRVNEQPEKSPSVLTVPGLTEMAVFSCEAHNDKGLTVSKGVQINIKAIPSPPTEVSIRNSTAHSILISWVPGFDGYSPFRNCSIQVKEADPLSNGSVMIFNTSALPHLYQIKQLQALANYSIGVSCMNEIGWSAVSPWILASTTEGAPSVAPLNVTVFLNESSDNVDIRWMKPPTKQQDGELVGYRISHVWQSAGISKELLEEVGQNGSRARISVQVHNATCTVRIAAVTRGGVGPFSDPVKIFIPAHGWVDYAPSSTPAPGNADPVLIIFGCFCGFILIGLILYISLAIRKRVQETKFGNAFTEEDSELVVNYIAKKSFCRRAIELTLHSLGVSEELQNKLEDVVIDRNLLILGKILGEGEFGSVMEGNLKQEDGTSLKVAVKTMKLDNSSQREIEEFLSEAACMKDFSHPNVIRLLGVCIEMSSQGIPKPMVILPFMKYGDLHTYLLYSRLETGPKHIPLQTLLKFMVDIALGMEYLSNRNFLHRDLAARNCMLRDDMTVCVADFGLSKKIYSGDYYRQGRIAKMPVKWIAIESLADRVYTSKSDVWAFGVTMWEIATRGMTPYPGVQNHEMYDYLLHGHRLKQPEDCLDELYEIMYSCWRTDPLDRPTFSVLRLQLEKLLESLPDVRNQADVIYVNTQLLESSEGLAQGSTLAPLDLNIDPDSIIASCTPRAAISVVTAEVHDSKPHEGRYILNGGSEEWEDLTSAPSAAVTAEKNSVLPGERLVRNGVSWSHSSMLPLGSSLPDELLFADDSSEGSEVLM
Nature of the test: MERTK SGC Tm panel (DSF). To be noted: for ΔTm: Compound concentration 10.0 uM.

The target of test [10] is Histamine H2 receptor (Homo sapiens) (UniProt P25021). To be noted: Compound concentration 10.0 uM.
Sequence of Histamine H2 receptor (Homo sapiens) (P25021 whole entry): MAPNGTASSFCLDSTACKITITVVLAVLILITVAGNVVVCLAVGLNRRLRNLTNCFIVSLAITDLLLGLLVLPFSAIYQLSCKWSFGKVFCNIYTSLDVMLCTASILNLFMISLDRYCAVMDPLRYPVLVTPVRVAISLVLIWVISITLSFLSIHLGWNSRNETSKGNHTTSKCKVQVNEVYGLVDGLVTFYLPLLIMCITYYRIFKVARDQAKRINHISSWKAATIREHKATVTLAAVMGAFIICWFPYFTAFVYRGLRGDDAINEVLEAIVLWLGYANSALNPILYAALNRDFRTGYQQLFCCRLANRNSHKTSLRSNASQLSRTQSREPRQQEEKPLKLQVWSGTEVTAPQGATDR
Test [11] deals with T4, 5-hydroxytryptamine receptor 2C (Homo sapiens) (UniProt P28335).
T4 sequence (whole entry): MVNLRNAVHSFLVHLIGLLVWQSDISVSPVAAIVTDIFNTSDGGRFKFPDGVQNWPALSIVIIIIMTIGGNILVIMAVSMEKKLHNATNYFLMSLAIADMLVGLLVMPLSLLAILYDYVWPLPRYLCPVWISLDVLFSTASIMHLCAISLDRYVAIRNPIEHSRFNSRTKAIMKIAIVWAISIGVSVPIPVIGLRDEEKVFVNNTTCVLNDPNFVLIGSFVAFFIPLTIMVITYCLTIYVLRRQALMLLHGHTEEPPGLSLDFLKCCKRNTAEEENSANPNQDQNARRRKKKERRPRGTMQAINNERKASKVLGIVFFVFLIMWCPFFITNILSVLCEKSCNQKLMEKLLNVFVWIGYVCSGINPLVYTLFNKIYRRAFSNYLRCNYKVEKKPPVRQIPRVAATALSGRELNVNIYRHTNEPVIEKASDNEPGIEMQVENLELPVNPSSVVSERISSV
To be noted: Compound concentration 10.0 uM.

For test [12], the target named is RAC-gamma serine/threonine-protein kinase (Homo sapiens) (UniProt Q9Y243). Nature of the test: AKT3 SGC Tm panel (DSF). To be noted: for ΔTm: Compound concentration 10.0 uM.
Sequence of RAC-gamma serine/threonine-protein kinase (Homo sapiens) (Q9Y243 whole entry): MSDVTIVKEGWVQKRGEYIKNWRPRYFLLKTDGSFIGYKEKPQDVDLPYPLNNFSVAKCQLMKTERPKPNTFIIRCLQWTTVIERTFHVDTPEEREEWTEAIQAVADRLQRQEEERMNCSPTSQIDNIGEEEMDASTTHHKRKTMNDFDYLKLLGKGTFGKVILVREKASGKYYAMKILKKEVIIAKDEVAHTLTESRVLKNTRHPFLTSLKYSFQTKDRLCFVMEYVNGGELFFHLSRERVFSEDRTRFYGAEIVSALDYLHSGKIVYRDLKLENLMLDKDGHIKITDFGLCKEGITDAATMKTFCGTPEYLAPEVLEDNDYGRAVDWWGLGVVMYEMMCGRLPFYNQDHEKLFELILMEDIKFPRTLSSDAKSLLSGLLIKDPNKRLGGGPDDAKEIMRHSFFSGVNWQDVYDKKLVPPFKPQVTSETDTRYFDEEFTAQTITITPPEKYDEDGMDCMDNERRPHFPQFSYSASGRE
In test [13] the target is Vascular endothelial growth factor receptor 1 (Homo sapiens) (UniProt P17948). Briefly: FLT1 SGC Tm panel (DSF). To be noted: for ΔTm: Compound concentration 10.0 uM.
Sequence of Vascular endothelial growth factor receptor 1 (Homo sapiens) (P17948 whole entry): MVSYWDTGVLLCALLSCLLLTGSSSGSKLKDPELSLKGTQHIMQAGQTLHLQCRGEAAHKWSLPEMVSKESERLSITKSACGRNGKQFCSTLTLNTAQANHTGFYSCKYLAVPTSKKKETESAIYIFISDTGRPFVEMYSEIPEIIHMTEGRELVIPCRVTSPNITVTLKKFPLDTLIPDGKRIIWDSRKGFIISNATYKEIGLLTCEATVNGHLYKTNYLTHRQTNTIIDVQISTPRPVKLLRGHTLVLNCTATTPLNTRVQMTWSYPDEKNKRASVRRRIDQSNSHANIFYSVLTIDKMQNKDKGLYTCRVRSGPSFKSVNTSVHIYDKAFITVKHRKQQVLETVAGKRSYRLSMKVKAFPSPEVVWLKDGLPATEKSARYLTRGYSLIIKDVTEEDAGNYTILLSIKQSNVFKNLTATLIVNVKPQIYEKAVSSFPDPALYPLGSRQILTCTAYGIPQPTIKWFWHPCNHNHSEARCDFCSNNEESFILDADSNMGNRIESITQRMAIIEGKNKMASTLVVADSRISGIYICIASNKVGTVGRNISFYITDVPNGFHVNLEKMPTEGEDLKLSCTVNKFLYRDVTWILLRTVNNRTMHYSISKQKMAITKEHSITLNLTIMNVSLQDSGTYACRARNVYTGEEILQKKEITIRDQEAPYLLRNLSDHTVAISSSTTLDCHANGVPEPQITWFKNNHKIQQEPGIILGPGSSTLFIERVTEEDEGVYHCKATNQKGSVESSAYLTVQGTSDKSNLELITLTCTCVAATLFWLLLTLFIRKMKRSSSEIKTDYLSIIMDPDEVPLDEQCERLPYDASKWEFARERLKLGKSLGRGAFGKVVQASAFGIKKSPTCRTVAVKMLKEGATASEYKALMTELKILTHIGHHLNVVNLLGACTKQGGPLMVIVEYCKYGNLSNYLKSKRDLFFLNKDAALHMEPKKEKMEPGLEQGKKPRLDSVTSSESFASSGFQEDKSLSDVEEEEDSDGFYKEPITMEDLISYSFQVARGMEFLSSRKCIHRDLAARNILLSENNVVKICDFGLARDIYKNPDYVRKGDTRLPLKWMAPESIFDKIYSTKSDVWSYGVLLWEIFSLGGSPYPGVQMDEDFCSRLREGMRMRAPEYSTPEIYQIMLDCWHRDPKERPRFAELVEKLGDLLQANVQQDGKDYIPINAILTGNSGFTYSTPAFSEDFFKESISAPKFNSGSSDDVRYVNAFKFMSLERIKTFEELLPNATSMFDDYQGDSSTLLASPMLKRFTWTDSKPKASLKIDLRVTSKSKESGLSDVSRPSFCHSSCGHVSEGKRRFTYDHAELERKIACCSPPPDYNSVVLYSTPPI

Sequence of Calcium/calmodulin-dependent protein kinase type 1D (Homo sapiens) (Q8IU85 whole entry, looked up): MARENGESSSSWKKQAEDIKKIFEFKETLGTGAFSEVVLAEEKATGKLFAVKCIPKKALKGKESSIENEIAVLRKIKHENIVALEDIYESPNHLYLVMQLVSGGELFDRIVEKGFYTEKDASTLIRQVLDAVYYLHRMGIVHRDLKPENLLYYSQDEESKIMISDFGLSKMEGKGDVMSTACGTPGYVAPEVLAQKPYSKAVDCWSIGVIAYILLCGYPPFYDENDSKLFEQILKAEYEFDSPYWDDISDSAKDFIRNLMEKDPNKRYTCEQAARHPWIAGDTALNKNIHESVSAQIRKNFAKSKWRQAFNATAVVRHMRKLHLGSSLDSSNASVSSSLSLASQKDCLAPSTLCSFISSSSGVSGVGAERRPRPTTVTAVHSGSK

The inhibition is the change of the read-out against control, counted positive when it falls. For the compound `CCC[C@H]1CNCc2c1[nH]c(=O)c(C#N)c2N1CCC2(CC1)CC2`, the delta Tm Staurosporine positive control in [1] turned out to be 12.8; in test [2], 10.9; in test [3] it was 16.7; in test [5], 21.5; in [6] it was 0.516; in test [7], 13.7. The delta Tm Staurosporine positive control in [8] is 7.21; in test [9], 6.4; in test [12] it was 7.15; in [13], 13.1. The ΔTm in test [1] is -0.0944; in test [2], -0.751; in test [3] it was -0.159; in [5], -0.755; in test [6], 1.56; in [7], -0.51. The ΔTm is -0.68 in test [8], -0.991 in test [9], -0.443 in test [12] and -0.145 in [13]. The inhibition is 34.3% in [4], 32.7% in test [10] and 8.81% in [11].
As for `CCC[C@@H]1CNCc2c1[nH]c(=O)c(C#N)c2N1CCC2(CC1)CC2`, the delta Tm Staurosporine positive control in test [1] amounted to 12.8; in [2], 10.9; in test [3], 16.7; in [5], 21.5; in test [6], 0.516; in test [7], 13.7. Moreover, the delta Tm Staurosporine positive control in test [8] is 7.21; in test [9], 6.4; in [12], 7.15; in [13] it was 13.1. Besides, the ΔTm is -0.119 in test [1]; -0.415 in test [2]; -0.32 in [3]; -0.827 in test [5]; 0.967 in [6]; -0.647 in test [7]. For the same compound, the ΔTm in test [8] was -0.679; in [9], -0.932; in test [12], -0.39; in [13], -0.163. The inhibition in [4] was 29.3%; in test [10], 25.3%; in test [11], 9.88%.
